Test [1] deals with Plasmodium falciparum. Kind of test: Antimalarial activity against chloroquine-sensitive Plasmodium falciparum 3D7 assessed as inhibition of schizont maturation at 0.5 ug/ml after 36 to 40 hr incubation by Giemsa staining. The format is functional.
Test [2] has as its system Plasmodium falciparum. The test can be described thus: Antimalarial activity against chloroquine-sensitive Plasmodium falciparum 3D7 assessed as inhibition of schizont maturation at 0.0625 ug/ml after 36 to 40 hr incubation by Giemsa staining. The format is functional.
Test [3] deals with Plasmodium falciparum. The test can be described thus: Antimalarial activity against chloroquine-sensitive Plasmodium falciparum RKL-2 assessed as dead rings and schizonts at 0.4 ug/ml after 36 to 40 hr incubation by Giemsa staining. The test is classed as functional.
Test [4] has as its system Plasmodium falciparum. Kind of test: Antimalarial activity against chloroquine-sensitive Plasmodium falciparum 3D7 assessed as inhibition of schizont maturation at 0.125 ug/ml after 36 to 40 hr incubation by Giemsa staining. The test is classed as functional.
Test [5] relates to Plasmodium falciparum. Kind of test: Antimalarial activity against chloroquine-sensitive Plasmodium falciparum 3D7 assessed as inhibition of schizont maturation at 0.25 ug/ml after 36 to 40 hr incubation by Giemsa staining. The format is functional.
In test [6] the test system is Plasmodium falciparum. Kind of test: Antimalarial activity against chloroquine-sensitive Plasmodium falciparum RKL-2 assessed as dead rings and schizonts at 100 ug/ml after 36 to 40 hr incubation by Giemsa staining. The format is functional.
Test [7] has as its system Plasmodium falciparum. The test can be described thus: Antimalarial activity against chloroquine-sensitive Plasmodium falciparum 3D7 assessed as inhibition of schizont maturation at 100 ug/ml after 36 to 40 hr incubation by Giemsa staining. The test is classed as functional.
Test [8] deals with Plasmodium falciparum. The test can be described thus: Antimalarial activity against chloroquine-sensitive Plasmodium falciparum 3D7 assessed as inhibition of schizont maturation at 0.063 ug/ml after 36 to 40 hr incubation by Giemsa staining. The format is functional.
Test [9] has as its system Plasmodium falciparum. Kind of test: Antimalarial activity against chloroquine-sensitive Plasmodium falciparum 3D7 assessed as inhibition of schizont maturation at 1 ug/ml after 36 to 40 hr incubation by Giemsa staining. The test is classed as functional.
The subject of test [10] is Plasmodium yoelii. The test can be described thus: Antimalarial activity against chloroquine-resistant Plasmodium yoelii infected Swiss mouse assessed as mouse showing nil parasitemia at 500 mg/kg, po qd for 4 days measured on day 4. The test is classed as functional, organism-based. Further details: dose 500 mg/kg.
Test [11] concerns Plasmodium yoelii. The test can be described thus: Antimalarial activity against chloroquine-resistant Plasmodium yoelii infected Swiss mouse assessed as mouse showing nil parasitemia at 500 mg/kg, po qd for 4 days measured on day 10. The test is classed as functional, organism-based. Further details: dose 500 mg/kg.
For test [12], the system named is Plasmodium falciparum. Kind of test: Antimalarial activity against chloroquine-sensitive Plasmodium falciparum 3D7 assessed as inhibition of schizont maturation at 0.031 ug/ml after 36 to 40 hr incubation by Giemsa staining. The test is classed as functional.
The subject of test [13] is Plasmodium falciparum. Kind of test: Antimalarial activity against chloroquine-sensitive Plasmodium falciparum 3D7 assessed as inhibition of schizont maturation at 10 ug/ml after 36 to 40 hr incubation by Giemsa staining. The format is functional.
The subject of test [14] is Plasmodium falciparum. The test can be described thus: Antimalarial activity against chloroquine-sensitive Plasmodium falciparum 3D7 assessed as inhibition of schizont maturation at 50 ug/ml after 36 to 40 hr incubation by Giemsa staining. The format is functional.
The test system of test [15] is Plasmodium falciparum. The test can be described thus: Antimalarial activity against chloroquine-sensitive Plasmodium falciparum 3D7 assessed as inhibition of schizont maturation at 2 ug/ml after 36 to 40 hr incubation by Giemsa staining. The test is classed as functional.
Test [16] relates to Plasmodium yoelii. The test can be described thus: Antimalarial activity against chloroquine-resistant Plasmodium yoelii infected Swiss mouse assessed as mouse showing nil parasitemia at 500 mg/kg, po qd for 4 days measured on day 7. The format is functional, organism-based. The arrangement: dose 500 mg/kg.
Test [17] has as its system Plasmodium yoelii. The test can be described thus: Antimalarial activity against chloroquine-resistant Plasmodium yoelii infected Swiss mouse assessed as suppression parasitemia at 500 mg/kg, po qd for 4 days. The test is classed as functional.

Each structure is given as a SMILES string. The source made the active and inactive calls. The calls are words filed in the database; no cut-off is given here.

For `CCN(CC)CCCC(C)Nc1ccnc2cc(Cl)ccc12` (stereo not given) [CHLOROQUINE], the inhibition at 0.5 µg/mL in the test with Plasmodium falciparum [1] came to 100%. Besides, in the test on Plasmodium falciparum [2], the inhibition at 0.0625 µg/mL was 88.4%. Besides, in the test with Plasmodium falciparum [3], the Activity is 54%. In addition, the inhibition at 0.125 µg/mL in the test with Plasmodium falciparum [4] came out at 97.1%. Moreover, the inhibition at 0.25 µg/mL in the test with Plasmodium falciparum [5] came out at 100%.

Regarding `CCCCN(CCCC)Cc1cc(Nc2ccnc3cc(Cl)ccc23)ccc1O`, the Activity in the test with Plasmodium falciparum [6] is reported as 5%.

With `Oc1ccc(Nc2ccnc3cc(Cl)ccc23)cc1CN1CCOCC1`, the inhibition at 100 µg/mL in the test with Plasmodium falciparum [7] stood at 100%. Besides, the inhibition at 0.5 µg/mL in the test with Plasmodium falciparum [1] stood at 100%. For the same compound, the inhibition at 0.063 µg/mL in the test on Plasmodium falciparum [8] is 100%. Besides, in the test on Plasmodium falciparum [9], the inhibition at 1 µg/mL stood at 100%. The result in the test with Plasmodium yoelii [10], with Plasmodium yoelii [11] and with Plasmodium yoelii [16] was Active. Also, the inhibition at 0.031 µg/mL in the test on Plasmodium falciparum [12] was found to be 73.3%. In the test with Plasmodium falciparum [13], the inhibition at 10 µg/mL amounted to 100%. Besides, the inhibition at 50 µg/mL in the test with Plasmodium falciparum [14] was determined as 100%. Moreover, the inhibition at 2 µg/mL in the test with Plasmodium falciparum [15] is 100%. In addition, in the test on Plasmodium falciparum [4], the inhibition at 0.125 µg/mL was 100%. Besides, the Activity with Plasmodium yoelii [17] stood at 100%. Further, in the test on Plasmodium falciparum [5], the inhibition at 0.25 µg/mL was 100%.

`CCCCNCc1cc(Nc2ccnc3cc(Cl)ccc23)ccc1O`: the inhibition at 100 µg/mL in the test with Plasmodium falciparum [7] was 100%. Further, the inhibition at 1 µg/mL with Plasmodium falciparum [9] was determined as 71.1%. Besides, the inhibition at 10 µg/mL in the test on Plasmodium falciparum [13] amounted to 100%. In addition, in the test with Plasmodium falciparum [14], the inhibition at 50 µg/mL was 100%. Further, in the test on Plasmodium falciparum [15], the inhibition at 2 µg/mL is 82.2%.

For the compound `Oc1ccc(Nc2ccnc3cc(Cl)ccc23)cc1CN(c1ccccc1)c1ccccc1`, the inhibition at 100 µg/mL in the test on Plasmodium falciparum [7] was found to be 38.9%. Further, in the test with Plasmodium falciparum [14], the inhibition at 50 µg/mL is 0.05%.

On to `CCCNCc1cc(Nc2ccnc3cc(Cl)ccc23)ccc1O`, for which the Activity in the test on Plasmodium falciparum [6] stood at 6.5%.

With `CC(C)N(Cc1cc(Nc2ccnc3cc(Cl)ccc23)ccc1O)C(C)C`, in the test with Plasmodium falciparum [6], the Activity is given as 3%.

As to `CC(C)NCc1cc(Nc2ccnc3cc(Cl)ccc23)ccc1O`, the Activity with Plasmodium falciparum [6] is on record as 6.5%.

The record behind these values is ChEMBL document CHEMBL3045700, “Synthesis and in vitro and in vivo antimalarial activity of novel 4-anilinoquinoline Mannich base derivatives” (2011).
